US20090203800A1, “Cytostatic Composition” (priority 2008, published 2009)

Experiments:
Type in all cases: cell-based
Conditions in all cases: 5-FU 1.0 mg/ml
[1] = system: human tumor xenograft LXFL 1647 (Lung, NSC); test: clonogenic assay (tumor colony assay)
Protocol: (§1) In the clonogenic assay (=tumor colony assay, TCA), inhibition of colony formation of tumor stem cells growing in soft agar is examined. Tumor stem cells, which are responsible for growth, the metastatic and infiltrative potential of a tumor, are prepared directly from human tumor xenografts growing in nude mice.
(§2) Cytostatic was tested at 6 concentrations. The highest concentration tested was 0.004%, as shown below, which was the maximum allowed concentration of the vehicle in the test set as 100% of Cytostatic. IMDM supplemented with 10% v/v saline solution was also used as a control vehicle.
(§3) Solid human tumor xenografts growing subcutaneously in serial passages in thymus aplastic nude mice (NMRI nu/nu strain,) were removed under sterile conditions, mechanically disaggregated and subsequently incubated with an enzyme cocktail consisting of collagenase type IV (41 U/ml) (Sigma), DNase I (125 U/ml) (Roche), hyaluronidase type III (100 U/ml) (Sigma) and dispase II (1.0 U/ml) (Roche) in RPMI 1640-Medium (Life Technologies) at 37° C. for 45 minutes. Cells were passed through sieves of 200 μm and 50 μm mesh size and washed twice with sterile PBS-buffer. The percentage of viable cells was determined in a Neubauer-hemocytometer using trypan blue exclusion.
(§4) The clonogenic assay was performed in a 24-well format according to a modified two-layer soft agar assay introduced by Hamburger & Salmon. The bottom layer consisted of 0.2 ml/well IMDM (Life Technologies) (supplemented with 20% (v/v) fetal calf serum (Sigma), 0.01% (w/v) gentamicin (Life Technologies) and 0.75% (w/v) agar). 2×10^4 to 4×10^4 cells were added to 0.2 ml of the same culture medium supplemented with 0.4% (w/v) agar and plated in 24-multiwell dishes onto the bottom layer. The test compound was applied by continuous exposure (drug overlay) in 0.2 ml culture medium. Every dish included six untreated control wells and drug-treated groups in triplicate at 6 concentrations. Cultures were incubated at 37° C. and 7.5% CO2 in a humidified atmosphere for 6-18 days and monitored closely for colony growth using an inverted microscope. Within this period, in vitro tumor growth led to the formation of colonies with a diameter of >50 μm. At the time of maximum colony formation, counts were performed with an automatic image analysis system (OMNICON 3600, Biosys GmbH). 24 hours prior to evaluation, vital colonies were stained with a sterile aqueous solution of 2-(4-iodophenyl)-3-(4-nitrophenyl)-5-phenyltetrazolium chloride (1 mg/ml, 100 μl/well) (Sigma).
(§5) Drug effects were expressed by the percentage of colony formation, obtained by comparison of the mean number of colonies in the treated wells with the mean colony count of the untreated controls (relative colony count expressed by the test-versus-control value, T/C-value [%]):
(§6) IC50- and IC70-values, being the drug concentrations necessary to inhibit colony formation by 50% (T/C=50%) and 70% (T/C=30%), respectively, were determined by plotting compound concentration versus relative colony count. Mean IC50- and IC70-values were calculated according to the formula

[2] = system: human tumor xenograft LXFA 526 (Lung, NSC); test: clonogenic assay (tumor colony assay)
Protocol: as §1, §2, §3, §4, §5, §6

[3] = system: human tumor xenograft PRXF DU145 (Prostate); test: clonogenic assay (tumor colony assay)
Protocol: as §1, §2, §3, §4, §5, §6

[4] = system: human tumor xenograft MEXF 989 (Melanoma); test: clonogenic assay (tumor colony assay)
Protocol: as §1, §2, §3, §4, §5, §6

[5] = system: human tumor xenograft LIXF 575 (Liver); test: clonogenic assay (tumor colony assay)
Protocol: as §1, §2, §3, §4, §5, §6

[6] = system: human tumor xenograft OVXF 899 (Ovary); test: clonogenic assay (tumor colony assay)
Protocol: as §1, §2, §3, §4, §5, §6

[7] = system: human tumor xenograft MEXF 1539 (Melanoma); test: clonogenic assay (tumor colony assay)
Protocol: as §1, §2, §3, §4, §5, §6

[8] = system: human tumor xenograft GXF 1172 (Stomach); test: clonogenic assay (tumor colony assay)
Protocol: as §1, §2, §3, §4, §5, §6

[9] = system: human tumor xenograft HNXF 536 (Head & neck); test: clonogenic assay (tumor colony assay)
Protocol: as §1, §2, §3, §4, §5, §6

[10] = system: human tumor xenograft OVXF 550 (Ovary); test: clonogenic assay (tumor colony assay)
Protocol: as §1, §2, §3, §4, §5, §6

[11] = system: human tumor xenograft MAXF 401 (Breast); test: clonogenic assay (tumor colony assay)
Protocol: as §1, §2, §3, §4, §5, §6

[12] = system: human tumor xenograft LXFS 615 (Lung, SC); test: clonogenic assay (tumor colony assay)
Protocol: as §1, §2, §3, §4, §5, §6

[13] = system: human tumor xenograft RXF 944LX (Kidney); test: clonogenic assay (tumor colony assay)
Protocol: as §1, §2, §3, §4, §5, §6

[14] = system: human tumor xenograft LXFS 650 (Lung, SC); test: clonogenic assay (tumor colony assay)
Protocol: as §1, §2, §3, §4, §5, §6

[15] = system: human tumor xenograft CXF 1103 (Colon); test: clonogenic assay (tumor colony assay)
Protocol: as §1, §2, §3, §4, §5, §6

[16] = system: human tumor xenograft CXF 280 (Colon); test: clonogenic assay (tumor colony assay)
Protocol: as §1, §2, §3, §4, §5, §6

[17] = system: human tumor xenograft PRXF MRIH1579 (Prostate); test: clonogenic assay (tumor colony assay)
Protocol: as §1, §2, §3, §4, §5, §6

[18] = system: human tumor xenograft BXF 1218 (Bladder); test: clonogenic assay (tumor colony assay)
Protocol: as §1, §2, §3, §4, §5, §6

[19] = system: human tumor xenograft RXF 631 (Kidney); test: clonogenic assay (tumor colony assay)
Protocol: as §1, §2, §3, §4, §5, §6

[20] = system: human tumor xenograft SXF 627 (Sarcoma); test: clonogenic assay (tumor colony assay)
Protocol: as §1, §2, §3, §4, §5, §6

[21] = system: human tumor xenograft MEXF 514 (Melanoma); test: clonogenic assay (tumor colony assay)
Protocol: as §1, §2, §3, §4, §5, §6

[22] = system: human tumor xenograft LXFL 529 (Lung, NSC); test: clonogenic assay (tumor colony assay)
Protocol: as §1, §2, §3, §4, §5, §6

[23] = system: human tumor xenograft PXF 1118 (Pleuramesothelioma); test: clonogenic assay (tumor colony assay)
Protocol: as §1, §2, §3, §4, §5, §6

[24] = system: human tumor xenograft MAXF 1384 (Breast); test: clonogenic assay (tumor colony assay)
Protocol: as §1, §2, §3, §4, §5, §6

[25] = system: human tumor xenograft LXFA 289 (Lung, NSC); test: clonogenic assay (tumor colony assay)
Protocol: as §1, §2, §3, §4, §5, §6

[26] = system: human tumor xenograft PAXF 736 (Pancreas); test: clonogenic assay (tumor colony assay)
Protocol: as §1, §2, §3, §4, §5, §6

[27] = system: human tumor xenograft MAXF 1322 (Breast); test: clonogenic assay (tumor colony assay)
Protocol: as §1, §2, §3, §4, §5, §6

[28] = system: 27 human tumor xenografts; test: clonogenic assay, whole test panel
Protocol: The antitumor efficacy of cytostatic composition as described above was evaluated in 27 human tumor xenografts in vitro using a clonogenic assay. The tumor test panel comprised 1 to 4 models of 15 different human tumor types, which were bladder cancer, colon, gastric, head and neck, liver, non small cell lung (adeno and large cell), small cell lung, mammary, ovary, pancreatic, prostate and renal cancer as well as melanoma, pleuramesothelioma, and sarcoma. The cytostatic composition was studied at 6 concentrations ranging from 0.001% to 100.0%. Antitumor effects were recorded as inhibition of colony formation in relation to untreated controls (T/C-values).
In the clonogenic assay (=tumor colony assay, TCA), inhibition of colony formation of tumor stem cells growing in soft agar is examined. […]
The clonogenic assay was performed in a 24-well format according to a modified two-layer soft agar assay introduced by Hamburger & Salmon. […] Cultures were incubated at 37° C. and 7.5% CO2 in a humidified atmosphere for 6-18 days and monitored closely for colony growth using an inverted microscope. […]
with x the specific tumor model, and n the total number of tumor models studied. If an IC50- or IC70-value could not be determined within the examined dose range (because a compound was either too active or lacked activity), the lowest or highest concentration studied was used for the calculation. […]

5-FU control, T/C [%] [1]: 5%
5-FU control, T/C [%] class [1]: +++ (+++ (T/C ≦ 10))
5-FU control, T/C [%] [2]: 2%
5-FU control, T/C [%] class [2]: +++ (+++ (T/C ≦ 10))
5-FU control, T/C [%] [3]: 1%
5-FU control, T/C [%] class [3]: +++ (+++ (T/C ≦ 10))
5-FU control, T/C [%] [4]: 0%
5-FU control, T/C [%] class [4]: +++ (+++ (T/C ≦ 10))
5-FU control, T/C [%] [5]: 4%
5-FU control, T/C [%] class [5]: +++ (+++ (T/C ≦ 10))
5-FU control, T/C [%] [6]: 31%
5-FU control, T/C [%] class [6]: + (+ (30 ≦ T/C ≦ 50))
5-FU control, T/C [%] [7]: 0%
5-FU control, T/C [%] class [7]: +++ (+++ (T/C ≦ 10))
5-FU control, T/C [%] [8]: 15%
5-FU control, T/C [%] class [8]: ++ (++ (10 < T/C < 30))
5-FU control, T/C [%] [9]: 9%
5-FU control, T/C [%] class [9]: +++ (+++ (T/C ≦ 10))
5-FU control, T/C [%] [10]: 33%
5-FU control, T/C [%] class [10]: + (+ (30 ≦ T/C ≦ 50))
5-FU control, T/C [%] [11]: 4%
5-FU control, T/C [%] class [11]: +++ (+++ (T/C ≦ 10))
5-FU control, T/C [%] [12]: 14%
5-FU control, T/C [%] class [12]: ++ (++ (10 < T/C < 30))
5-FU control, T/C [%] [13]: 1%
5-FU control, T/C [%] class [13]: +++ (+++ (T/C ≦ 10))
5-FU control, T/C [%] [14]: 0%
5-FU control, T/C [%] class [14]: +++ (+++ (T/C ≦ 10))
5-FU control, T/C [%] [15]: 10%
5-FU control, T/C [%] class [15]: +++ (+++ (T/C ≦ 10))
5-FU control, T/C [%] [16]: 21%
5-FU control, T/C [%] class [16]: ++ (++ (10 < T/C < 30))
5-FU control, T/C [%] [17]: 7%
5-FU control, T/C [%] class [17]: +++ (+++ (T/C ≦ 10))
5-FU control, T/C [%] [18]: 2%
5-FU control, T/C [%] class [18]: +++ (+++ (T/C ≦ 10))
5-FU control, T/C [%] [19]: 4%
5-FU control, T/C [%] class [19]: +++ (+++ (T/C ≦ 10))
5-FU control, T/C [%] [20]: 2%
5-FU control, T/C [%] class [20]: +++ (+++ (T/C ≦ 10))
5-FU control, T/C [%] [21]: 4%
5-FU control, T/C [%] class [21]: +++ (+++ (T/C ≦ 10))
5-FU control, T/C [%] [22]: 0%
5-FU control, T/C [%] class [22]: +++ (+++ (T/C ≦ 10))
5-FU control, T/C [%] [23]: 2%
5-FU control, T/C [%] class [23]: +++ (+++ (T/C ≦ 10))
5-FU control, T/C [%] [24]: 4%
5-FU control, T/C [%] class [24]: +++ (+++ (T/C ≦ 10))
5-FU control, T/C [%] [25]: 12%
5-FU control, T/C [%] class [25]: ++ (++ (10 < T/C < 30))
5-FU control, T/C [%] [26]: 5%
5-FU control, T/C [%] class [26]: +++ (+++ (T/C ≦ 10))
5-FU control, T/C [%] [27]: 0%
5-FU control, T/C [%] class [27]: +++ (+++ (T/C ≦ 10))
Compound: O=c1[nH]cc(F)c(=O)[nH]1 [5-FU, 5-fluorouracil]
antitumor activity of positive control of growth inhibition [28]: good antitumor activity
